# Test results taken from ChEMBL document CHEMBL1121648, “Metabolism of 1,3-bis(2-chloroethyl)-1-nitrosourea by rat hepatic microsomes” (J Med Chem, 1981).
# Experiments:
# [1] = species: Rattus norvegicus; assay: NADPH-dependent metabolic rate was measured in rat liver microsomal preparations; format: functional
# [2] = Half-life for disappearance of compound measured at 37 degree C and pH 7.4 in rat liver microsomal preparations; format: ADME; details: liver microsomes
SMILES,Rate (nM (mg of protein)-1) [1],half-life [2] [h]
O=C(NCCCl)NCCCl,54,
O=NN(CCCl)C(=O)NCCCl [CARMUSTINE],56,1.5
